Molecules are shown by their SMILES.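 How tested: cells in 96-well plates exposed to compound for 48 hours at five concentrations. TGI denotes the concentration required for complete inhibition of growth.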

Test systems include EKVX NSCLC; ACHN renal; OVCAR-8 ovarian; M14 melanoma; HL-60(TB) leukemia; HT29 colon; UO-31 renal; NCI-H522 lung; NCI-H460 lung; HCC-2998 colon.
Common to all, as to assay: growth of human tumour cells (NCI), 48 h

Regarding `Cc1cc2ccc(N)nc2[nH]c1=O`, the TGI in the test on EKVX NSCLC, in the test with ACHN renal, in the test with OVCAR-8 ovarian, with M14 melanoma, in the test on HL-60(TB) leukemia and in the test with HT29 colon was over 100 µM each time. Further, the TGI with UO-31 renal, in the test on NCI-H522 lung and with NCI-H460 lung was over 100 µM in each case.

Take `CC(NC(=O)C(Cc1ccc(OC(=O)c2ccccc2)cc1)NC(=O)OC(C)(C)C)C(=O)NCC(=O)NC(Cc1ccccc1)C(=O)NN` (stereo not drawn): the TGI in the test with EKVX NSCLC was over 100 µM; in the test on ACHN renal, over 100 µM; with OVCAR-8 ovarian it was over 100 µM; in the test on M14 melanoma it was over 100 µM; in the test on HL-60(TB) leukemia it was 41.5 µM; in the test on HT29 colon, over 100 µM. Besides, the TGI in the test on UO-31 renal, in the test with NCI-H522 lung and in the test on NCI-H460 lung was over 100 µM in each case.

For `CCOC(=O)/C=C/[C@@H](CC)O[Si](C(C)C)(C(C)C)C(C)C`, the TGI in the test with EKVX NSCLC, with ACHN renal, with HCC-2998 colon, in the test on OVCAR-8 ovarian, in the test on HT29 colon and in the test with UO-31 renal was over 100 µM in each case. Further, the TGI in the test on NCI-H522 lung and in the test on NCI-H460 lung was over 100 µM in each case.

Take `CCOC(=O)c1cc(Br)c(-c2cc(C)co2)[nH]1`: the TGI in the test on EKVX NSCLC, with HCC-2998 colon, in the test on OVCAR-8 ovarian, with M14 melanoma, in the test on HL-60(TB) leukemia and in the test on HT29 colon was over 100 µM in each case. Further, the TGI in the test with UO-31 renal and with NCI-H460 lung was over 100 µM in each case.

In the case of `CC1C2(C)OCC(C#N)(C(=N)O2)C1(C#N)C#N` (stereo not drawn), the TGI in the test with EKVX NSCLC is 52.7 µM; in the test with ACHN renal, over 100 µM; with OVCAR-8 ovarian it was 84.2 µM; in the test with M14 melanoma it was 39.2 µM; in the test with HL-60(TB) leukemia, 38.2 µM; in the test on HT29 colon, 35.3 µM. Moreover, the TGI in the test on UO-31 renal is over 100 µM; with NCI-H460 lung, 42.2 µM.

On to `CC(C)=NOC(=O)Nc1cccc2c1OCO2`, for which the TGI with EKVX NSCLC, with ACHN renal, in the test on HCC-2998 colon, in the test on OVCAR-8 ovarian, with M14 melanoma and with HT29 colon was over 100 µM each time. Further, the TGI in the test with UO-31 renal, with NCI-H522 lung and in the test on NCI-H460 lung was over 100 µM in each case.

In the case of `Nc1cc2c3c(cccc3c1)C(=O)N(c1ccc(OCCN3CCCC3)cc1)C2=O`, the TGI in the test on EKVX NSCLC stood at 46.1 µM; in the test on ACHN renal, 26.5 µM; with HCC-2998 colon it was 31.3 µM; in the test with OVCAR-8 ovarian, 35.8 µM; in the test on M14 melanoma, 51.2 µM; with HT29 colon, 29.8 µM. Also, the TGI stood at 28.6 µM in the test on UO-31 renal, 30.7 µM with NCI-H522 lung and 23.7 µM in the test with NCI-H460 lung.

As to `O=C(Cc1ccccc1)NN1C(=O)/C(=C\c2ccccc2O)SC1=Nc1ccccc1`, the TGI with EKVX NSCLC, in the test on ACHN renal, in the test with HCC-2998 colon, in the test on OVCAR-8 ovarian, in the test with M14 melanoma and with HT29 colon was over 100 µM throughout. For the same molecule, the TGI in the test on UO-31 renal and with NCI-H460 lung was over 100 µM in each case.

With `CCOC(=O)C(C(=O)COC(C)(C)C)[C@@H]1C=C[C@H](OC(C)=O)C1` (stereo partly drawn), the TGI in the test with EKVX NSCLC, in the test with ACHN renal, in the test with HCC-2998 colon, in the test on M14 melanoma, in the test on HT29 colon and with UO-31 renal was over 100 µM throughout. For the same molecule, the TGI in the test with NCI-H460 lung was over 100 µM.

On to `O=c1[nH]c2ccc([N+](=O)[O-])cc2nc1/C=C(\O)c1ccccc1`, for which the TGI in the test on EKVX NSCLC is over 100 µM; with ACHN renal it was over 100 µM; in the test with HCC-2998 colon it was over 100 µM; in the test on OVCAR-8 ovarian it was 49.4 µM; with M14 melanoma, over 100 µM; with HT29 colon, over 100 µM. Moreover, the values for the TGI in the test with UO-31 renal, with NCI-H522 lung and in the test on NCI-H460 lung were over 100 µM, 34.6 µM and 16.5 µM, respectively.

`O=C1C(c2c(O)[nH]c3ccc(S(=O)(=O)NCCO)cc23)=Nc2ccccc21`: the TGI in the test with EKVX NSCLC, in the test with ACHN renal, with HCC-2998 colon, in the test on OVCAR-8 ovarian, with M14 melanoma and in the test on HT29 colon was over 100 µM each time. The TGI in the test on UO-31 renal is over 100 µM; in the test on NCI-H522 lung it was 4.73 µM; with NCI-H460 lung it was over 100 µM.

For the molecule `COC(=O)c1cc(/C=C\c2cc(OC)ccc2OC)ccc1OC`, the TGI was 88.9 µM with EKVX NSCLC; over 100 µM with ACHN renal; 45.7 µM in the test on HCC-2998 colon; over 100 µM with OVCAR-8 ovarian; 84.2 µM with M14 melanoma; over 100 µM in the test on HT29 colon. The TGI is 75.3 µM in the test with UO-31 renal, 45.6 µM with NCI-H522 lung and over 100 µM in the test with NCI-H460 lung.

Consider `COc1ccc2c(c1)CCC/C2=N\NS(=O)(=O)c1c(C)cc(C)cc1C`, for which the TGI in the test with EKVX NSCLC was 98.5 µM; in the test on ACHN renal, over 100 µM; with HCC-2998 colon, over 100 µM; with OVCAR-8 ovarian, 85.3 µM; in the test with M14 melanoma, over 100 µM; in the test on HT29 colon, 43.5 µM. The TGI in the test on UO-31 renal was over 100 µM; in the test with NCI-H460 lung it was 95.3 µM.

For the molecule `CCn1c2ccccc2c2cc(Nc3cc(C)[nH]c(=O)n3)ccc21`, the TGI in the test on EKVX NSCLC, in the test with ACHN renal, with HCC-2998 colon, in the test with OVCAR-8 ovarian, in the test with M14 melanoma and in the test with HT29 colon was over 100 µM throughout. Also, the TGI in the test with UO-31 renal, in the test with NCI-H522 lung and with NCI-H460 lung was over 100 µM each time.

With `CC/C(=C\c1ccc(OC)cc1)c1ccc(OC)cc1`, the TGI in the test with EKVX NSCLC, in the test with ACHN renal, in the test with HCC-2998 colon, in the test with OVCAR-8 ovarian, with M14 melanoma and in the test with HT29 colon was over 100 µM each time. Besides, the TGI in the test on UO-31 renal, in the test on NCI-H522 lung and in the test with NCI-H460 lung was over 100 µM each time.

The values above are taken from PubChem BioAssay (NCI).
